The values below come from the NIST ThermoML archive (doi:10.1021/je800842z).

Each structure is given as a SMILES string. ± gives the expanded uncertainty stated by the source.

The conditions of data set [1]: 293.15 K; 101.33 kPa; Liquid; Pycnometric method.
Data set [2] can be described thus: refractive index (Na D-line) (dimensionless). To be noted: 293.15 K; 101.33 kPa; Liquid; Standard Abbe refractometry.

Consider `Cc1ccccc1` [toluene], for which, in data set [1], the mass density (in general, the mass of a sample divided by its volume) is reported as 866 ± 1 kg/m3. Further, in data set [2], the refractive index – broadly, a measure of how strongly the sample bends light – turned out to be 1.4967 ± 0.0004.

For `c1ccccc1` [benzene], in data set [1], the mass density turned out to be 879 ± 1 kg/m3. In addition, the refractive index in data set [2] is 1.5011 ± 0.0004.

For `CCOC(C)=O` [ethyl acetate], the mass density in data set [1] is 900 ± 1 kg/m3. For the same molecule, the refractive index in data set [2] is 1.3588 ± 0.0004.
